From patent US8378107B2, “Heteroaryl antagonists of prostaglandin D2 receptors” (Panmira Pharmaceuticals, LLC, priority 2008, dated 2013)

biological target: T1, human DP2 receptor (Homo sapiens, UniProt Q9Y5Y4); assay: DP2/CRTH2 radioligand binding assay using [3H]PGD2; settings: membranes of HEK293 cells expressing recombinant human DP2, 1 nM [3H]PGD2; read-out: hDP2
T1 construct: expressed in transfected cells; membrane preparation
T1 sequence (Q9Y5Y4 1-395): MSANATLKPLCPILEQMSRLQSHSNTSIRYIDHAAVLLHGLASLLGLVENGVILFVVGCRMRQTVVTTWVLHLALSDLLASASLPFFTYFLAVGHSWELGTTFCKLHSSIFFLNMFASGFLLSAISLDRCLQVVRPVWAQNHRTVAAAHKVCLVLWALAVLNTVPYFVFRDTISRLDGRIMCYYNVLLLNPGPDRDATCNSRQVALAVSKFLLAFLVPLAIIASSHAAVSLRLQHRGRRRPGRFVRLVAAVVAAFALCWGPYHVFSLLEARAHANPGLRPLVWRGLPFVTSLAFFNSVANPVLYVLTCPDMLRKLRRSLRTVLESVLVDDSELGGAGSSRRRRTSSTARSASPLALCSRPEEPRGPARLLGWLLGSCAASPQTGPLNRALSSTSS
Method: The ability of a compound to bind to the human DP2 receptor is assessed via a radioligand binding assay using [^3H]PGD2. HEK293 cells stably expressing recombinant human DP2 are resuspended in 10 mM Hepes, 7.4 containing 1 mM DTT, lysed and centrifuged at 75,000×g to pellet the membranes. The membranes are resuspended in 10 mM Hepes, 7.4 containing 1 mM DTT and 10% glycerol to approximately 5 mg protein/ml. Membranes (2-10 μg protein/well) are incubated in 96-well plates with 1 nM [^3H]PGD2 and test compound in Assay Buffer (50 mM Hepes, 10 mM MnCl2, 1 mM EDTA, plus or minus 0.2% human serum albumin, pH 7.4) for 60 minutes at room temperature. The reactions are terminated by rapid filtration through Whatman GF/C glass fibre filter plates. The filter plates were pre-soaked in 0.33% polyethylenimine for 30 minutes at room temperature then washed in Wash Buffer (50 mM Hepes, 0.5 M NaCl pH 7.4) prior to harvesting. After harvesting, the filter plates are washed 3 times with 1 ml cold Wash Buffer then dried. Scintillant is then added to the plates and the radioactivity retained on the filters is determined on a Packard TopCount (Perkin Elmer). Specific binding is determined as total radioactive binding minus non-specific binding in the presence of 10 μM PGD2. IC50s were determined using GraphPad prism analysis of drug titration curves.

| IC50 | Structure (SMILES) |
| --- | --- |
| < 0.3 µM | CCC(=O)N(CC)Cc1nc2ccccc2cc1-c1cc(CC(=O)O)ccc1OC [Compound 2-5, (3-{2-[(Ethyl-propionyl-amino)-methyl]-quinolin-3-yl}-4-methoxy-phenyl)-acetic acid] |
| > 1 µM | COc1ccc(CC(=O)O)cc1-c1ncccc1CNC(=O)OCc1ccccc1 [Compound 1-1, {3-[3-(Benzyloxycarbonylamino-methyl)-pyridin-2-yl]-4-methoxy-phenyl}-acetic acid] |
| < 0.3 µM | CCN(Cc1cc(C)cnc1-c1cc(CC(=O)O)ccc1OC)C(=O)CCc1ccccc1 [Compound 1-3, [3-(3-{[Ethyl-(3-phenyl-propionyl)-amino]-methyl}-5-methyl-pyridin-2-yl)-4-methoxy-phenyl]-acetic acid] |
| < 0.3 µM | CCN(Cc1nc2ccccc2cc1-c1cc(CC(=O)O)ccc1OC)C(=O)C1CC1 [Compound 2-4, (3-{2-[(Cyclopropanecarbonyl-ethyl-amino)-methyl]-quinolin-3-yl}-4-methoxy-phenyl)-acetic acid] |
| < 0.3 µM | COc1ccc(CC(=O)O)cc1-c1cc2ccccc2nc1CN(Cc1ccccc1)C(=O)C1CC1 [Compound 2-8, (3-{2-[(Benzyl-cyclopropanecarbonyl-amino)-methyl]-quinolin-3-yl}-4-methoxy-phenyl)-acetic acid] |
| < 0.3 µM | CCN(Cc1cc(C)cnc1-c1cc(CC(=O)O)ccc1OC)C(=O)NCc1ccccc1 [Compound 1-4, {3-[3-(3-Benzyl-1-ethyl-ureidomethyl)-5-methyl-pyridin-2-yl]-4-methoxy-phenyl}-acetic acid] |
| 0.3 to 1 µM | O=C(O)CCn1c2c(c3ccccc31)C[C@H](NS(=O)(=O)c1ccc(F)cc1)CC2 [Ramatroban, reference compound] |
| < 0.3 µM | COc1ccc(CC(=O)O)cc1-c1cc2ccccc2nc1CN(Cc1ccccc1)C(C)=O [Compound 2-7, (3-{2-[(Acetyl-benzyl-amino)-methyl]-quinolin-3-yl}-4-methoxy-phenyl)-acetic acid] |
| 0.3 to 1 µM | CCN(Cc1cc(C)cnc1-c1cc(CC(=O)O)ccc1OC)C(=O)C1CC1 [Compound 1-2, (3-{3-[(Cyclopropanecarbonyl-ethyl-amino)-methyl]-5-methyl-pyridin-2-yl}-4-methoxy-phenyl)-acetic acid] |
| > 1 µM | CCN(Cc1cc2ccccc2nc1-c1cc(CC(=O)O)ccc1OC)C(=O)COC [Compound 2-3, [3-(3-{[Ethyl-(2-methoxy-acetyl)-amino]-methyl}-quinolin-2-yl)-4-methoxy-phenyl]-acetic acid] |
| 0.3 to 1 µM | CCN(Cc1cc2ccccc2nc1-c1cc(CC(=O)O)ccc1OC)C(=O)C1CC1 [Compound 2-1, (3-{3-[(Cyclopropanecarbonyl-ethyl-amino)-methyl]-quinolin-2-yl}-4-methoxy-phenyl)-acetic acid] |
| > 1 µM | CCN(Cc1cc2ccccc2nc1-c1cc(CC(=O)O)ccc1OC)C(C)=O [Compound 2-2, (3-{3-[(Acetyl-ethyl-amino)-methyl]-quinolin-2-yl}-4-methoxy-phenyl)-acetic acid] |
| < 0.3 µM | CCN(Cc1nc2ccccc2cc1-c1cc(CC(=O)O)ccc1OC)C(=O)COC [Compound 2-6, [3-(2-{[Ethyl-(2-methoxy-acetyl)-amino]-methyl}-quinolin-3-yl)-4-methoxy-phenyl]-acetic acid] |
